Experimental data reported in PubChem BioAssay (NCI).
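All cell lines were grown in 96-well plates and treated with compound for 48 hours. GI50: concentration for 50% inhibition of growth. TGI denotes the concentration required for complete inhibition of growth.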 Where a SMILES comes first, the peptide text is derived from it. The star is where a group is joined. Boc = CC(C)(C)OC(=O)*

Columns and labels:
Test in all cases: NCI tumour cell line growth inhibition, 48 h
HOP-92 NSCLC = tested on: HOP-92 NSCLC
U251 CNS = tested on: U251 CNS
CCRF-CEM leukemia = tested on: CCRF-CEM leukemia
HCT-116 colon = tested on: HCT-116 colon

Row | SMILES | TGI (HOP-92 NSCLC) | TGI (U251 CNS) | TGI (CCRF-CEM leukemia) | TGI (HCT-116 colon) | GI50 (HOP-92 NSCLC) | GI50 (U251 CNS) | GI50 (CCRF-CEM leukemia)
1 | CCCCCC(C)C[C@H]1CO[C@H](c2ccc[nH]2)N[C@H]1C(=O)OC (stereo partly specified) | > 100 µM | > 100 µM | > 100 µM | > 100 µM |  |  | 
2 | O=C(CCCC(=O)N1CC(CCl)c2ccc([N+](=O)[O-])cc21)N1CC(CCl)c2ccc([N+](=O)[O-])cc21 (stereo unspecified) | > 100 µM | > 100 µM | > 100 µM | > 100 µM |  |  | 
3 | COc1nc2c(c(=O)n1C)N[C@@H]1[C@@H](O)[C@H](O)CO[C@@H]1N2 |  | > 100 µM | > 100 µM | > 100 µM |  |  | 
4 | Cn1c(N/N=C/c2ccc(Cl)cc2)nc(-c2ccc(Cl)cc2)c(C#N)c1=O | 57.7 µM | 72.1 µM | > 100 µM | 26.3 µM |  |  | 
5 | CSc1n[n+](C)cc(N)c1N | 98 µM | > 100 µM | > 100 µM | > 100 µM |  |  | 
6 | Cc1ccc2c3c1O[C@H]1c4nc5ccccc5cc4C[C@@]4(O)[C@@H](C2)N(CC2CC2)CC[C@]314 | 58.3 µM | 18.7 µM | 22.3 µM | 17.2 µM |  |  | 
7 | Cc1nc2ccccc2n1CCc1nc2ccccc2s1 | > 100 µM | > 100 µM | > 100 µM | > 100 µM |  |  | 
8 | Fc1cccc2nc(-c3ccccc3)cc(OCc3ccccc3)c12 |  | > 100 µM | > 100 µM | > 100 µM |  |  | 
9 | Cc1nc2c(Br)cc(Br)cc2c(=O)n1-c1ccccc1N |  |  | > 100 µM | 66.9 µM |  |  | 
10 | COc1ccc(N=C/C=C/Nc2ccc(OC)cc2)cc1 | 29.6 µM | 10.2 µM | > 37.2 µM | 11.8 µM |  |  | 
11 | COc1ccc(-c2cc(-c3ccc(Nc4ccnc5cc(Cl)ccc45)cc3)nc(N)c2C#N)c2ccccc12 |  | > 100 µM | > 100 µM | > 100 µM |  |  | 
12 | CN(C)Cc1cc(C(=O)/C=C/c2ccc(/C=C/C(=O)c3cc(CN(C)C)c(O)c(CN(C)C)c3)cc2)cc(CN(C)C)c1O | 56.4 µM | 47 µM | > 100 µM | 34 µM |  |  | 
13 | C=C(Br)CN(C#N)CC(=C)Br |  | > 100 µM | > 100 µM | > 100 µM |  |  | 
14 | O=C(c1cccs1)N(C(=O)N1CCC(c2ccccc2)CC1)c1ccccc1 |  | > 100 µM | > 100 µM | > 100 µM |  |  | 
15 | CC1=C(C#N)S(=O)(=O)c2c(oc(C)c2C)N1 | > 100 µM | > 100 µM |  | > 100 µM |  |  | 
16 | CCn1c2c(c3c(C(=O)OC)c(O)ccc31)C(=O)c1ccccc1C2=O | 32.8 µM | 36.3 µM | 43.6 µM | 26.5 µM |  |  | 
17 | COc1ccc(CNc2nc3ccccc3nc2-c2cccs2)cc1 | > 100 µM | > 100 µM | > 100 µM | > 100 µM |  |  | 
18 | NNC(=O)c1ccccc1NC(=O)/C(=C/c1ccccc1)NC(=O)c1ccccc1 | > 100 µM | > 100 µM | > 100 µM | > 100 µM |  |  | 
19 | Cc1nnc2c3c(-c4ccccc4)c(-c4ccccc4)oc3nc(N(C)C)n12 | > 100 µM | > 100 µM | > 100 µM | > 100 µM |  |  | 

Row | SMILES | TGI (HOP-92 NSCLC) | TGI (U251 CNS) | TGI (CCRF-CEM leukemia) | TGI (HCT-116 colon) | GI50 (HOP-92 NSCLC) | GI50 (U251 CNS) | GI50 (CCRF-CEM leukemia)
20 | COc1ccc(-c2cn3c(n2)sc2cc(C)ccc23)cc1 | 20.8 µM | 21.8 µM | > 100 µM | > 100 µM |  |  | 
21 | CCCCNC(=S)Nc1nc(C(=O)NNS(=O)(=O)c2ccccc2)cs1 | > 100 µM | > 100 µM | > 100 µM | 69.5 µM |  |  | 
22 | CCCCCCCCOCC1S(=O)(=O)OCCOS1(=O)=O | > 100 µM | > 100 µM | > 100 µM | > 100 µM |  |  | 
23 | Clc1ccc(-c2nc(-c3ccc(Cl)cc3)[s+]s2)cc1 |  | > 100 µM | 98.6 µM | > 100 µM |  |  | 
24 | C=C1CCCCCCCCCCC1S(=O)c1ccccc1 (stereo unspecified) | > 100 µM | 53.2 µM |  | > 100 µM |  |  | 
25 | CO[P@]1(=O)O[C@@H](c2ccccc2)[C@H](O)[C@]1(O)c1ccccc1 | > 100 µM | > 100 µM | > 100 µM | > 100 µM |  |  | 
26 | COC(=O)c1c(O)ccc2c1c1c(n2C)C(=O)c2ccccc2C1=O | 21 µM | 67.5 µM | 51.9 µM | 32.1 µM |  |  | 
27 | CCCCCc1c(CCCC)c(=O)[nH]c2cc(CNCC(OC)OC)ccc12 | 16.5 µM | 23.9 µM | 19.2 µM | 18.9 µM |  |  | 
28 | Clc1ccc(OCc2nnc(CCCCCCCCc3nnc(COc4ccc(Cl)cc4Cl)o3)o2)c(Cl)c1 | > 100 µM | > 100 µM |  | > 100 µM |  |  | 
29 | Cc1ccc2[nH]c(=O)c(-c3cnc(=O)[nH]n3)c(O)c2c1 |  | > 100 µM | > 100 µM | > 100 µM |  |  | 
30 | O=C1/C(=C/c2cccs2)N=C(c2ccccc2)N1C1Nc2cc3c(cc2S1)NC(N1C(=O)/C(=C/c2cccs2)N=C1c1ccccc1)S3 (stereo unspecified) | > 100 µM | 32.7 µM |  | 56 µM |  |  | 
31 | CCN(CC)C(=O)CCCCCCCCC1CO1 (stereo unspecified) | > 100 µM | > 100 µM | > 100 µM | > 100 µM |  |  | 
32 | Brc1ccc2c(c1)C1=C(CO2)Cc2ccccc2O1 | 31.5 µM | 36.3 µM | > 100 µM | 29.9 µM |  |  | 
33 | S=C1CC(c2ccc(Cl)cc2)Sc2ccccc2N1 (stereo unspecified) |  | > 100 µM | > 100 µM | > 100 µM |  |  | 
34 | COc1cc2c(cc1OCCCC(=O)Nc1cc(C(=O)Nc3cc(C(=O)NCCCN(C)C)n(C)n3)n(C)n1)N=CC1CCCN1C2=O (stereo unspecified) | 33.2 µM | 39.5 µM | 29.7 µM | 34 µM |  |  | 
35 | O=c1[nH]cnc2c1ncn2[C@H]1CO[C@@H](CO)[C@@H]1O | > 100 µM | > 100 µM | > 100 µM | > 100 µM |  |  | 
36 | O=[N+]([O-])C(=C(NCc1ccccc1)NCc1ccccc1)C(Cl)=C(Cl)Cl | > 100 µM |  | 50.7 µM | > 100 µM |  |  | 
37 | CC1(C)C2CCC1C(=O)C(C=O)C2 (stereo unspecified) |  | > 100 µM | > 100 µM | > 100 µM |  |  | 
38 | CC(Nc1cc(Cl)cc(Cl)c1)c1ccncc1 (stereo unspecified) |  | 35.2 µM | 58 µM | 31.6 µM |  |  | 

Row | SMILES | TGI (HOP-92 NSCLC) | TGI (U251 CNS) | TGI (CCRF-CEM leukemia) | TGI (HCT-116 colon) | GI50 (HOP-92 NSCLC) | GI50 (U251 CNS) | GI50 (CCRF-CEM leukemia)
39 | COc1ccc2c(c1)CC[C@@H]1[C@@H]2CC[C@]2(C)/C(=N/OCCN3CCCCC3)CC[C@@H]12 | 14.4 µM | 24.3 µM | 10.4 µM | 5.67 µM |  |  | 
40 | CN(C)c1ccc(/C=N/NC2=N/C(=C\c3ccco3)C(=O)N2)cc1 | > 100 µM | > 100 µM | > 100 µM | > 100 µM |  |  | 
41 | NS(=O)(=O)c1ccc(/C=C/c2cccc(O)c2)cc1 | 65.9 µM | > 100 µM | > 100 µM | > 100 µM | 17.4 µM | 21.1 µM | 16.1 µM
42 | O=C1CC(O)c2c(Cl)sc(Cl)c21 (stereo unspecified) | 7.89 µM | 20.2 µM | 4.68 µM | 13.8 µM |  |  | 
43 | CC(=O)Oc1ccc2c(c1)CC[C@@H]1C2[C@@H](O[N+](=O)[O-])C[C@@]2(C)C1CC[C@@H]2O (stereo partly specified) | > 100 µM | > 100 µM | > 83.2 µM | > 100 µM |  |  | 
44 | CC1(C)CCOC(=O)C(Cl)CC1Cl (stereo unspecified) |  | > 100 µM | > 100 µM | > 100 µM |  |  | 
45 | COC(=O)C(Cc1ccccc1)NC(=O)CNC(=O)CSc1nnc(COc2ccc(Cl)cc2)n1-c1ccccc1 (stereo unspecified) | 35.3 µM | 32.8 µM | 7.42 µM | 33 µM |  |  | 
46 | C/C(=N/O)c1cccc(Nc2nc3ccccc3c3[nH]c4ccccc4c23)c1 | 6.95 µM | 11.5 µM | > 100 µM | 4.77 µM |  |  | 
47 | COc1cccc(C2c3cc4c(cc3OC(N3CCOCC3)C2C)OCO4)c1O (stereo unspecified) | 71.4 µM | 12.7 µM | 35.3 µM | 16.6 µM |  |  | 
48 | NC1CCC(c2cc3ccccc3s2)(N2CCCCC2)CC1 (stereo unspecified) | 5.15 µM | 3.05 µM | 2.45 µM | 3.05 µM |  |  | 
49 | CN(C)CCOc1ccc(-c2c(Oc3ccc(Cl)cc3)c(=O)oc3ccccc23)cc1 | > 39.4 µM | > 32.9 µM | > 29 µM | > 32.9 µM |  |  | 
50 | CC1CC[C@]2(C(=O)O)CCC3(C)C(=C2[C@H]1C)C=CC1[C@@]2(C)CC[C@H](O)C(C)(C)C2CC[C@]13C (stereo partly specified) | 43.9 µM | 97.7 µM | > 100 µM | 64.1 µM |  |  | 
51 | CC(NC(=O)C(NC(=O)OC(C)(C)C)C(C)C)C(=O)NCC(=O)O (stereo not drawn) (Boc-Val-Ala-Gly-OH; configuration not given here) | > 100 µM | > 100 µM |  | > 100 µM |  |  | 
52 | O=C(CSc1nc2ccc(I)cc2c(=O)n1Cc1ccccc1)Nc1ccc(Br)cc1 | > 100 µM | > 100 µM | > 100 µM | > 100 µM |  |  | 
53 | COc1cccc(-c2cc(=O)c3cc(C)cnc3[nH]2)c1 |  | > 100 µM | > 100 µM | > 40 µM |  |  | 
54 | O=S1(=O)c2ccccc2N2CCCc3cc(Cl)cc1c32 |  |  | > 100 µM | > 100 µM |  |  | 
55 | COc1ccc(CN=CN/C(C#N)=C(\N)C#N)cc1OC |  | > 100 µM | > 100 µM | > 100 µM |  |  | 
56 | CCOC(=O)/C(=C\c1ccc(CO)o1)P(=O)(OCC)OCC | 53.7 µM | > 100 µM |  | 43.8 µM |  |  | 
57 | Cc1nn(-c2ccccc2)c(C)c1/C=N/NC(=O)c1sc(=S)n(-c2ccccc2)c1N |  | > 100 µM | > 100 µM | 34.5 µM |  |  | 
